Measured values: ChEMBL document CHEMBL1201862, “PubChem BioAssay data set” (2004)
Calls of active or inactive are those of the source.

What was measured:
Cytochrome P450 2C9 = Cytochrome P450 2C9 (Homo sapiens, UniProt P11712)
Cytochrome P450 3A4 = Cytochrome P450 3A4 (Homo sapiens, UniProt P08684);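 also: CYP3A4 tested as one member of a cytochrome P450 panel screen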
Troponin, cardiac muscle = Troponin, cardiac muscle (Homo sapiens, UniProt P19429+P45379+P63316); experiment: Fluorescence-based biochemical high throughput dose response assay for activators of the calcium sensitivity of cardiac Regulated Thin Filaments (RTF). [Related pubchem assays (depositor defined):AID493008, AID493018, AID504382, AID504383]; format: protein-complex assay
[1] = Luminescence Cell-Based Dose Response HTS to Identify Activators of Luciferase Translation or Activity in H4 […] Cells. [Related pubchem assays: 1829 (Project Summary), 1814 (Primary HTS)]; format: functional
H4 = experiment: Luminescence Cell-Based Dose Response HTS to Identify Activators of 5'UTR Stem-Loop Driven Prion Protein mRNA Translation in H4 Neuroglioblastoma Cells. [Related pubchem assays: 1829 (Project Summary), 1814 (Primary HTS)]; format: functional; details: Homo sapiens
HeLa = experiment: HeLa cell cytotoxicity, dose response, cytotoxicity control for MITF activator project, CellTiter-Glo luminescence, cherry-pick samples (AID 540259); format: functional, cell-based; details: Homo sapiens
[2] = inhibitors of intracellular T. cruzi replication, confirmation, NIH3T3 host cells, beta-gal luminescence (AID 2044); format: functional, cell-based;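 also: intracellular parasites grown in NIH/3T3 mouse fibroblasts as host cells; luminescent beta-galactosidase reporter signal from transgenic T. cruzi replicating inside host cells; inhibitors lower the luminescence signal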
[3] = cytotoxicity toward NIH3T3 fibroblasts, dose response, counter-screen, cell-based, ATP luminescence, mouse fibroblasts (AID 2010); format: functional;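 also: cells exposed to compound for about 90 hours before reading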
[4] = target: T1, Microphthalmia-associated transcription factor (Homo sapiens, UniProt O75030); experiment: TRPM1 promoter luciferase signal decrease, dose response, MITF inhibitor project, cell-based, SK-MEL-5, cherry-picked, set 3 (AID 493073); format: functional
T1 sequence (O75030 whole entry): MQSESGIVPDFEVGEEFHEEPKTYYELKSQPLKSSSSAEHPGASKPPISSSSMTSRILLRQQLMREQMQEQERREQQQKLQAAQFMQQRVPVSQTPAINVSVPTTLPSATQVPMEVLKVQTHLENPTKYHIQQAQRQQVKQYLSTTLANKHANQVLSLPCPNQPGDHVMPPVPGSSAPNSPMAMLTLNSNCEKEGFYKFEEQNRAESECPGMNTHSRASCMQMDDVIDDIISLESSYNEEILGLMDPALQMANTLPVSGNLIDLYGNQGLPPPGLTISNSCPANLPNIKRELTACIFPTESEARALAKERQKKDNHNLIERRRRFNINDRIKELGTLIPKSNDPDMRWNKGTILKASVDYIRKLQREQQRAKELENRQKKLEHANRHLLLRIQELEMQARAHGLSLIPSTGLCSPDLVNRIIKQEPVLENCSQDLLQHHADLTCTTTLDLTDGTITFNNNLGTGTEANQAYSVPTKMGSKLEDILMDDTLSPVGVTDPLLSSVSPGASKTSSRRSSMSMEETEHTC

HEK293 = experiment: inhibitors of LMP1-driven NF-kB reporter, dose response, cell-based, HEK293, luciferase, cherry-pick (AID 588343); format: functional; details: Homo sapiens
[5] = target: T2, Ubiquitin-conjugating enzyme E2 N (Homo sapiens, UniProt P61088); format: functional;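 also: Dose-response confirmation in a TR-FRET assay detecting UBC13-driven polyubiquitin chain formation, inhibition measured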
T2 sequence (P61088 whole entry): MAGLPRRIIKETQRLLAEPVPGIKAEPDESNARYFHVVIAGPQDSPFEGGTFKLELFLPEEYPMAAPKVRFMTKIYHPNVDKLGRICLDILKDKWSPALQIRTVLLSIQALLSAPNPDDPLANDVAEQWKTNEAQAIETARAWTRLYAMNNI

Vero = experiment: cells; format: functional; details: Chlorocebus sabaeus
[6] = A549 cell cytotoxicity, dose response, cytotoxicity control, plate reader, cherry-pick, antagonist series (AID 743412); format: functional, cell-based
[7] = HepG2 cell cytotoxicity, dose response, cytotoxicity control, plate reader, cherry-pick, antagonist series (AID 743416); format: functional, cell-based
[8] = LGR2 antagonists, dose response, cell-based, HEK293, CRE-luciferase reporter, cherry pick, set 2 (AID 743343); format: functional;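 also: transfected cells were stimulated with diluted bursicon conditioned medium after compound addition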
[9] = MC4R antagonists, dose response, counter-screen for LGR2 antagonist project, cell-based, plate reader, cherry pick (AID 743444); format: functional;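 also: transfected HEK 293 cells stimulated with alpha-MSH peptide; potency of inhibitors of the alpha-MSH evoked signal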
[10] = HEK293 cell cytotoxicity, dose response, cytotoxicity control, plate reader, cherry-picked samples (AID 743446); format: functional, cell-based
[11] = target: Glyceraldehyde-3-phosphate dehydrogenase (Homo sapiens, UniProt P04406)
[12] = target: T3, Alkaline phosphatase, tissue-nonspecific isozyme (Homo sapiens, UniProt P05186); experiment: human TNAP enzyme inhibitors, SAR follow-up, biochemical, luminescent, dose response (AID 1056)
T3 sequence (P05186 whole entry): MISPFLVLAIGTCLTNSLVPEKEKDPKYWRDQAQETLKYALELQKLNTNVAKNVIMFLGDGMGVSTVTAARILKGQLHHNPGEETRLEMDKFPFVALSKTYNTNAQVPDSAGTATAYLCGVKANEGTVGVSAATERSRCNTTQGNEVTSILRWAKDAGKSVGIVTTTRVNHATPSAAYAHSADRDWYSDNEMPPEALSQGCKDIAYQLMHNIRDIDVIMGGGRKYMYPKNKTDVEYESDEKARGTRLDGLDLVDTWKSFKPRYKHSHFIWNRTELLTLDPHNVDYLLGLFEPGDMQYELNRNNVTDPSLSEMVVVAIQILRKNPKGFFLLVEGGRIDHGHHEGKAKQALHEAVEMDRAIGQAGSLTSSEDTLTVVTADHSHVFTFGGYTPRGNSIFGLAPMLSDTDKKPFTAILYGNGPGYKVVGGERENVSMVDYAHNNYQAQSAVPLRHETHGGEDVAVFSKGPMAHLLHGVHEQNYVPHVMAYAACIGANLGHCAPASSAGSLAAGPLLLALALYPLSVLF

[13] = Luminescence Cell-Based Dose Retest to Confirm Inhibitors of Cancer Stem Cells. [Related pubchem assays (depositor defined):AID2717, AID2721]; format: functional; details: Homo sapiens
[14] = target: T4, Replicative DNA helicase DnaB (Mycobacterium tuberculosis, UniProt P9WMR3); experiment: DnaB intein splicing inhibitors, dose response, biochemical, cell-free fluorescence (AID 449749); format: functional
T4 sequence (P9WMR3 whole entry): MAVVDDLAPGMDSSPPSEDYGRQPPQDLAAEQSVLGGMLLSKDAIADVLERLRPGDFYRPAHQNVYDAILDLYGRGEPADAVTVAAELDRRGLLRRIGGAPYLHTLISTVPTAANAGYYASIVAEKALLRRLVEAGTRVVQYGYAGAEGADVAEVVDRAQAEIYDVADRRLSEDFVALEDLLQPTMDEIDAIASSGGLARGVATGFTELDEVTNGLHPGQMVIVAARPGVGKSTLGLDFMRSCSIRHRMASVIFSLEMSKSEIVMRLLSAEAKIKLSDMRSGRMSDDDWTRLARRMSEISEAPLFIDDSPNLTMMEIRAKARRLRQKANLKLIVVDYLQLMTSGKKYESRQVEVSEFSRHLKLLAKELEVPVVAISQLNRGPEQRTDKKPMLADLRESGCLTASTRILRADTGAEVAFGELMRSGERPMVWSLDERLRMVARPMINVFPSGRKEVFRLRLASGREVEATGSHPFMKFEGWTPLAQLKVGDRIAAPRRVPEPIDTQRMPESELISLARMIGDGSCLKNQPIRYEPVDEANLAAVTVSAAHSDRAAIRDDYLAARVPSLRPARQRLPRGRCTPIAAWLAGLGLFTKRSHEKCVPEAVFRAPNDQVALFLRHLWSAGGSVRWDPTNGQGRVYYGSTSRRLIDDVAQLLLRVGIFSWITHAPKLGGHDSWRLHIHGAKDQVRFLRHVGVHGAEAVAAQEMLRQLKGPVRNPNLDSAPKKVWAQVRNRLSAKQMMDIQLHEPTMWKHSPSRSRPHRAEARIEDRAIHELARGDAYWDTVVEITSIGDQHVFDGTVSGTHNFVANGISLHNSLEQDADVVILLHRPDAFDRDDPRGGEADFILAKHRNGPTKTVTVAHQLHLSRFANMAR

Protein RecA = target: T5, Protein RecA (Mycobacterium tuberculosis, UniProt P9WHJ3); experiment: Fluorescence Cell-Free Homogeneous Dose Retest to Identify Inhibitors of RecA-Intein Splicing Activity. [Related pubchem assays (depositor defined):AID2097, AID2223, AID489010, AID492950]; format: functional
T5 sequence (P9WHJ3 whole entry): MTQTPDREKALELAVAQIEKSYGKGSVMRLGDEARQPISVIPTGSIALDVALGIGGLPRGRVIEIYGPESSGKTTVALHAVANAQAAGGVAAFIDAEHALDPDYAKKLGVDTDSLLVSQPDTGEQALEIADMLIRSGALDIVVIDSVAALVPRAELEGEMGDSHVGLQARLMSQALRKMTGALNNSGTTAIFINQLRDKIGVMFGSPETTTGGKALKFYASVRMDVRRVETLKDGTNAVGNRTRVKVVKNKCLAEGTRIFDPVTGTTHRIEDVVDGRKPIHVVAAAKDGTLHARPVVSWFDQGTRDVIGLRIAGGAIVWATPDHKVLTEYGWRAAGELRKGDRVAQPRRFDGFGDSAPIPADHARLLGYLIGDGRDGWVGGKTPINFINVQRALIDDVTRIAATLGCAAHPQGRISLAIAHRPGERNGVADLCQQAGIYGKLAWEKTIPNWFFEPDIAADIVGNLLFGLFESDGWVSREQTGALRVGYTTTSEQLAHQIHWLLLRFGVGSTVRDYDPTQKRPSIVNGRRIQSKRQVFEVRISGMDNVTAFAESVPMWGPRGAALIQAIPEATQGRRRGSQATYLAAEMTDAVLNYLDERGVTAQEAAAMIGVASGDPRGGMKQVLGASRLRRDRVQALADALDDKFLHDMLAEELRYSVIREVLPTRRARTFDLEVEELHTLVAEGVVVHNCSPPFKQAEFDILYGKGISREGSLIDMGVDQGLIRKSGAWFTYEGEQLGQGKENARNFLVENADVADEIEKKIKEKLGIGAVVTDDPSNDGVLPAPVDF

[15] = A cytotoxicity screen of small molecule inhibitors of the PhoP region in Salmonella typhi identified in the primary screen. [Related pubchem assays: 1850, 1864, 1985 ]; format: functional

## Cn1c(=N)c(S(=O)(=O)c2ccc(F)cc2)cc2c(=O)n3ccccc3nc21
Cytochrome P450 2C9
  AC50: 17.8 µM (inconclusive)
Cytochrome P450 3A4
  AC50: inconclusive

## COc1ccccc1-c1nnc(SCc2nc3ccccc3s2)n1C
Troponin, cardiac muscle
  EC50: > 71.5 µM (inactive)

## Cn1c(C(=O)NCCc2c[nH]c3ccccc23)cc2sccc21
[1]
  EC50: 21.7 µM (active)
H4
  EC50: 14.7 µM (active)
HeLa
  AC50: 239 µM (active)

## Cn1c2ccccc2c(=O)c2ccc(-c3ccc4c(c3)OCO4)cc21
HeLa
  AC50: 46.6 µM (active)

## O=C(CCNc1ccccc1)c1ccc2c(c1)OCO2
HeLa
  AC50: 111 µM (active)

## COc1ccc(CCNC(=O)COC(=O)c2cc(=O)[nH]c3ccccc23)cc1
Troponin, cardiac muscle
  EC50: > 71.5 µM (inactive)

## CCN(CC)S(=O)(=O)c1cccc(C(=O)N/N=C/c2ccc([N+](=O)[O-])o2)c1
[2]
  EC50: 0.218 µM (active)
[3]
  EC50: 13.3 µM (active)
[4]
  AC50: 14.1 µM (active)

## COC(=O)N1CCC2(CC1)CCN(c1ncccn1)CC2
Cytochrome P450 3A4
  AC50: inconclusive

## N#Cc1c(NC(=O)CCCC(=O)O)sc2c1CCCCC2
HEK293
  AC50: 4.36 µM (active)

## CCC(C(=O)NC1CCCC1)N(C(=O)c1snc(C(N)=O)c1N)c1ccc(OC)cc1 (configuration not stated)
[5]
  IC50: > 20 µM (inactive)

## O=C(Cc1nc2ccccc2[nH]1)c1cccc([N+](=O)[O-])c1
Vero
  CC50: 6.19 µM (active)
[6]
  AC50: 20.7 µM (active)
[7]
  AC50: 11.2 µM (active)
[8]
  AC50: 4.47 µM (active)
[9]
  AC50: 5.45 µM (active)
[10]
  AC50: 12.1 µM (active)

## COc1ccc(S(=O)(=O)Nc2cnc3ccccc3c2)cc1OC
[11]
  IC50: > 100 µM (not active)
[12]
  IC50: > 100 µM (inactive)

## COc1ccc(C[C@@H]2CN3C(=NC[C@@H]3Cc3ccc(O)cc3)N2C[C@H](C)NC(=O)CCC2CCCCC2)cc1
[5]
  IC50: > 20 µM (inactive)

## Cc1ccc(-c2cc(C(=O)O)[nH]n2)cc1C
[11]
  IC50: > 100 µM (not active)
[12]
  IC50: 62.9 µM (active)

## CC1=NN(c2ccccc2)C(=O)/C1=C/C=C/c1ccccc1
[13]
  AC50: 2.41 µM (active)
Vero
  CC50: 11.3 µM (active)

## CN(C(=O)C(Cl)Cl)c1ccc(OC(=O)c2ccco2)cc1 [DILOXANIDE FUROATE]
[14]
  AC50: 13.9 µM (active)
Protein RecA
  EC50: 10.3 µM (active)
Cytochrome P450 3A4
  AC50: inconclusive

## CC(=O)NCCn1c(SCc2ccccc2C)nc2ccccc2c1=O
[15]
  EC50: > 50 µM (active)
[14]
  AC50: 28.4 µM (active)
Protein RecA
  EC50: 83.2 µM (active)

## Cc1ccccc1-n1nnnc1SCC(C)C
Troponin, cardiac muscle
  EC50: > 71.5 µM (inactive)

## COc1cc(OC)cc(-c2oc(=O)c3cc(OC)c(OC)cc3c2C(F)(F)F)c1
[4]
  AC50: 12.8 µM (active)

## CC1CCC(NC(=O)c2cc3ccccc3cc2O)CC1 (configuration not stated)
HeLa
  AC50: 35.2 µM (active)
